Reference: ChEMBL document CHEMBL1201862, “PubChem BioAssay data set” (2004)
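Following 48 hours of exposure in 96-well plates, responses at five concentrations were used to interpolate endpoints linearly. GI50: concentration for 50% inhibition of growth.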 Calls of active or inactive are those of the source. Rule as the data show it: active = GI50 up to about 1.1 µM and inactive = higher.

How the values were obtained:
Experiment in all cases: inhibition of tumour cell growth, NCI panel, 48 h
CAKI-1 = system: CAKI-1
HCT-15 = system: HCT-15
M14 = system: M14
KM-20L2 = system: KM-20L2
LOX IMVI = system: LOX IMVI
DMS-273 = system: DMS-273
A498 = system: A498
KM12 = system: KM12
HCC 2998 = system: HCC 2998
RPMI-8226 = system: RPMI-8226
SNB-75 = system: SNB-75
HCT-116 = system: HCT-116
786-0 = system: 786-0
HL-60 = system: HL-60
SF-295 = system: SF-295
SK-MEL-2 = system: SK-MEL-2
OVCAR-4 = system: OVCAR-4
IGROV-1 = system: IGROV-1
HOP-92 = system: HOP-92
COLO 205 = system: COLO 205
TK-10 = system: TK-10
LXFL 529 = system: LXFL 529
M19-MEL = system: M19-MEL
Malme-3M = system: Malme-3M
SF-268 = system: SF-268
OVCAR-3 = system: OVCAR-3
OVCAR-8 = system: OVCAR-8
SK-MEL-28 = system: SK-MEL-28
OVCAR-5 = system: OVCAR-5
UO-31 = system: UO-31
SF-539 = system: SF-539
UACC-257 = system: UACC-257
NCI-H23 = system: NCI-H23
SW-620 = system: SW-620
SN12C = system: SN12C
RXF 631 = system: RXF 631
MOLT-4 = system: MOLT-4
NCI-H460 = system: NCI-H460
NCI-H522 = system: NCI-H522
U-251 = system: U-251
SNB-78 = system: SNB-78
ACHN = system: ACHN
HT-29 = system: HT-29
RXF 393 = system: RXF 393
XF498 = system: XF498
SR = system: SR
CCRF-CEM = system: CCRF-CEM
NCI-H226 = system: NCI-H226
SNB-19 = system: SNB-19
HOP-62 = system: HOP-62
HOP-18 = system: HOP-18
DMS-114 = system: DMS-114
EKVX = system: EKVX
DLD-1 = system: DLD-1
SK-OV-3 = system: SK-OV-3
SK-MEL-5 = system: SK-MEL-5
A549 = system: A549
K562 = system: K562
UACC-62 = system: UACC-62

Structure (SMILES): COC(=O)C1C2C=CC(C2)C1(C(=O)OC)[S+]([O-])CC12CCC(CC1O)C2(C)C (stereo not given)
- GI50 (CAKI-1): > 100 µM (inactive)
- GI50 (HCT-15): 19.2 µM
- GI50 (M14): > 100 µM (inactive)
- GI50 (KM-20L2): > 100 µM (inactive)
- GI50 (LOX IMVI): 21.1 µM (inactive)
- GI50 (DMS-273): 44.4 µM (inactive)
- GI50 (A498): > 100 µM (inactive)
- GI50 (KM12): > 100 µM (inactive)
- GI50 (HCC 2998): > 100 µM (inactive)
- GI50 (RPMI-8226): 70.1 µM (inactive)
- GI50 (SNB-75): > 100 µM (inactive)
- GI50 (HCT-116): > 100 µM (inactive)
- GI50 (786-0): > 100 µM (inactive)
- GI50 (HL-60): > 100 µM (inactive)
- GI50 (SF-295): > 100 µM (inactive)
- GI50 (SK-MEL-2): > 100 µM (inactive)
- GI50 (OVCAR-4): > 100 µM (inactive)
- GI50 (IGROV-1): > 100 µM (inactive)
- GI50 (HOP-92): > 100 µM (inactive)
- GI50 (COLO 205): > 100 µM (inactive)
- GI50 (TK-10): > 100 µM (inactive)
- GI50 (LXFL 529): > 100 µM (inactive)
- GI50 (M19-MEL): > 100 µM (inactive)
- GI50 (Malme-3M): > 100 µM (inactive)
- GI50 (SF-268): > 100 µM (inactive)
- GI50 (OVCAR-3): > 100 µM (inactive)
- GI50 (OVCAR-8): > 100 µM (inactive)
- GI50 (SK-MEL-28): > 100 µM (inactive)
- GI50 (OVCAR-5): > 100 µM (inactive)
- GI50 (UO-31): > 100 µM (inactive)
- GI50 (SF-539): > 100 µM (inactive)
- GI50 (UACC-257): > 100 µM (inactive)
- GI50 (NCI-H23): > 100 µM (inactive)
- GI50 (SW-620): 16 µM (inactive)
- GI50 (SN12C): > 100 µM (inactive)
- GI50 (RXF 631): > 100 µM (inactive)
- GI50 (MOLT-4): > 100 µM (inactive)
- GI50 (NCI-H460): > 100 µM (inactive)
- GI50 (NCI-H522): > 100 µM (inactive)
- GI50 (U-251): > 100 µM (inactive)
- GI50 (SNB-78): > 100 µM (inactive)
- GI50 (ACHN): > 100 µM (inactive)
- GI50 (HT-29): > 100 µM (inactive)
- GI50 (RXF 393): 77.8 µM (inactive)
- GI50 (XF498): > 100 µM (inactive)
- GI50 (SR): 31.2 µM (inactive)
- GI50 (CCRF-CEM): > 100 µM (inactive)
- GI50 (NCI-H226): > 100 µM (inactive)
- GI50 (SNB-19): > 100 µM (inactive)
- GI50 (HOP-62): > 100 µM (inactive)
- GI50 (HOP-18): > 100 µM (inactive)
- GI50 (DMS-114): 85.7 µM (inactive)
- GI50 (EKVX): > 100 µM (inactive)
- GI50 (DLD-1): 60.8 µM (inactive)
- GI50 (SK-OV-3): > 100 µM (inactive)
- GI50 (SK-MEL-5): > 100 µM (inactive)
- GI50 (A549): > 100 µM (inactive)
- GI50 (K562): 39.4 µM (inactive)
- GI50 (UACC-62): > 100 µM (inactive)

Structure (SMILES): Cc1ccccc1-n1c2nc(=O)n(C)c(=O)c-2nc2ccccc21
- GI50 (CAKI-1): 24.4 µM (inactive)
- GI50 (HCT-15): 11.1 µM
- GI50 (M14): 11 µM (inactive)
- GI50 (KM-20L2): 7.35 µM (inactive)
- GI50 (LOX IMVI): 15.7 µM (inactive)
- GI50 (DMS-273): 10.9 µM (inactive)
- GI50 (A498): 31.8 µM (inactive)
- GI50 (KM12): 12.2 µM (inactive)
- GI50 (HCC 2998): 10.8 µM (inactive)
- GI50 (RPMI-8226): 16.3 µM (inactive)
- GI50 (SNB-75): 20.1 µM (inactive)
- GI50 (HCT-116): 14.6 µM (inactive)
- GI50 (786-0): 15.8 µM (inactive)
- GI50 (HL-60): 11.1 µM (inactive)
- GI50 (SF-295): 14.2 µM (inactive)
- GI50 (SK-MEL-2): 15.1 µM (inactive)
- GI50 (OVCAR-4): 13.6 µM (inactive)
- GI50 (IGROV-1): 19.2 µM (inactive)
- GI50 (COLO 205): 3.56 µM (inactive)
- GI50 (TK-10): 12.1 µM (inactive)
- GI50 (LXFL 529): 12.5 µM (inactive)
- GI50 (M19-MEL): 1.85 µM (inactive)
- GI50 (Malme-3M): 5.58 µM (inactive)
- GI50 (SF-268): 12.7 µM (inactive)
- GI50 (OVCAR-3): 2.33 µM (inactive)
- GI50 (OVCAR-8): 12.2 µM (inactive)
- GI50 (OVCAR-5): 20.5 µM (inactive)
- GI50 (UO-31): 29.1 µM (inactive)
- GI50 (SF-539): 15.2 µM (inactive)
- GI50 (UACC-257): 8.73 µM (inactive)
- GI50 (NCI-H23): 10.1 µM (inactive)
- GI50 (SW-620): 13.4 µM (inactive)
- GI50 (SN12C): 13.3 µM (inactive)
- GI50 (RXF 631): 14.6 µM (inactive)
- GI50 (MOLT-4): 17.8 µM (inactive)
- GI50 (NCI-H460): 9.55 µM (inactive)
- GI50 (NCI-H522): 14.9 µM (inactive)
- GI50 (U-251): 17.3 µM (inactive)
- GI50 (SNB-78): 18.6 µM (inactive)
- GI50 (ACHN): 8.39 µM (inactive)
- GI50 (HT-29): 4.24 µM (inactive)
- GI50 (RXF 393): 17.2 µM (inactive)
- GI50 (XF498): 17.5 µM (inactive)
- GI50 (CCRF-CEM): 13.3 µM (inactive)
- GI50 (NCI-H226): 21 µM (inactive)
- GI50 (SNB-19): 14.6 µM (inactive)
- GI50 (HOP-62): 38.5 µM (inactive)
- GI50 (HOP-18): 10.5 µM (inactive)
- GI50 (DMS-114): 4.9 µM (inactive)
- GI50 (EKVX): 11.8 µM (inactive)
- GI50 (DLD-1): 16.7 µM (inactive)
- GI50 (SK-OV-3): 36.9 µM (inactive)
- GI50 (SK-MEL-5): 10.6 µM (inactive)
- GI50 (A549): 13.2 µM (inactive)
- GI50 (K562): 18.2 µM (inactive)
- GI50 (UACC-62): 3.48 µM (inactive)
